# Data from patent US10959961B2, “Methods of administering anionic cannabinoid molecules dissolved in water” (priority 2018, dated 2021).
# “And” between values parts separate entries of the source, which are not always exact repeats. Identical values can stand only once.
# Key:
# [1] = test system: healthy, consenting adults; assay: Qualitative assessment of pharmacokinetics in humans, oral self-administration (Example 23); assay type: in vivo, human
# Description: Approximately 60 milligrams of 2-[(1R,6R)-6-isopropenyl-3-methylcyclohex-2-en-1-yl]-3-hydroxy-5-pentylphenolate prepared from crude industrial hemp extract was dissolved in water as described in Example 16, buffered to a pH of 9.1, and added to a 296 milliliter bottle of DASANI® purified water. […] A healthy, consenting adult self-administered the entire bottle of 60 milligrams of 2-[(1R,6R)-6-isopropenyl-3-methylcyclohex-2-en-1-yl]-3-hydroxy-5-pentylphenolate in water orally over 5 to 10 minutes. […] The individual described the psychoactive effect as a pleasant sensation accompanied by both an enhanced ability to focus and elevated alertness.
# Approximately 30 milligrams of 2-[(1R,6R)-6-isopropenyl-3-methylcyclohex-2-en-1-yl]-3-hydroxy-5-pentylphenolate prepared from crude industrial hemp extract was dissolved in water, buffered to a pH of 9.1, and added to each of four 296 milliliter bottles of DASANI® purified water. […] Four healthy, consenting adults orally self-administered varying amounts of the four solutions over 5 to 10 minutes.
# [2] = Removal of ethanol in a vacuum oven up to 157° C. (Example 15); assay type: physicochemical; conditions: oven under vacuum, ramped to 157° C.; purple taffy-like product
# Description: 372 grams of crude industrial hemp extract containing approximately 65% cannabidiol was dissolved in ethanol at a weight ratio of 1:2 crude to ethanol. 43.2 grams of potassium hydroxide was slowly added to the hemp extract in ethanol, and the solution was stirred while heating at 55° C. The solution was then placed in an oven under vacuum and slowly ramped to a temperature of 157° C. over the course of approximately 1 hour, at which time heating was discontinued. The solution was then left in the oven under vacuum overnight.
# The product produced by ethanol removal in an oven under vacuum was purple with a taffy-like consistency indicative of polymer formation. The product lacked appreciable solubility in water.
# [3] = Third-party HPLC cannabinoid profile of olive oil extract of the aqueous solution (Example 24); assay type: physicochemical
# Description: Pure cannabidiol was deprotonated and dissolved in water using a strategy similar to those described in Examples 16 and 19. Acetic acid was then added to 100 milliliters of the water, dropwise, until the purple color disappeared to reform cannabidiol. Reprotonated cannabidiol was extracted from the water using 4 milliliters of olive oil. Two 1 milliliter samples of the olive oil were sent to Botanacor Laboratories (Boulder, Colo.) for cannabinoid profile analysis using an Agilent Technologies (Santa Clara, Calif.) High Performance Liquid Chromatography instrument with a diode array detector. Botanacor Laboratories is ISO/IEC 17025 accredited for cannabinoid potency determination.
# [4] = Commercial viability of beverages: phenolate solution added to bottled water (Example 21); assay type: physicochemical
# Description: 20 milliliters of water was removed from a 1 liter bottle of ESSENTIA® OVERACHIEVING H2O®. ESSENTIA® OVERACHIEVING H2O® contains purified water, sodium bicarbonate, dipotassium phosphate, magnesium sulfate, and calcium chloride, and its pH was determined to be about 9.5. The 20 milliliters of removed water was replaced with 20 milliliters of the 20 gram-per-liter solution of 2-[(1R,6R)-6-isopropenyl-3-methylcyclohex-2-en-1-yl]-3-hydroxy-5-pentylphenolate, which is described in Example 19, and the bottle was sealed using the screw-cap top of the bottle to produce a sealed container containing approximately 400 milligrams of 2-[(1R,6R)-6-isopropenyl-3-methylcyclohex-2-en-1-yl]-3-hydroxy-5-pentylphenolate. The pH of the liquid was measured and determined to be about 10.
# 5 milliliters of water was removed from a 500 milliliter bottle of DASANI® purified water. DANSANI® purified water contains purified water, magnesium sulfate, potassium chloride, and sodium chloride, and its pH was determined to be about 7.0. The 5 milliliters of removed water was replaced with 5 milliliters of the 20 gram-per-liter solution of 2-[(1R,6R)-6-isopropenyl-3-methylcyclohex-2-en-1-yl]-3-hydroxy-5-pentylphenolate, which is described in Example 19, and the bottle was sealed using the screw-cap top of the bottle to produce a sealed container containing approximately 100 milligrams of 2-[(1R,6R)-6-isopropenyl-3-methylcyclohex-2-en-1-yl]-3-hydroxy-5-pentylphenolate. The pH of the liquid was measured and determined to be about 9.5.
# 0.5 milliliters of water was removed from a 500 milliliter bottle of DASANI® purified water. […] The pH of the liquid was measured and determined to be about 8.5.
# [5] = Color of phenolate in carbonate/bicarbonate buffer at variable pH (Example 19); assay type: physicochemical; conditions: approximately 1 gram-per-liter
# Description: 1 gram of cannabidiol was dissolved in 6.6 milliliters of 0.5 molar potassium hydroxide in ethanol to produce 2-[(1R,6R)-6-isopropenyl-3-methylcyclohex-2-en-1-yl]-3-hydroxy-5-pentylphenolate. The solution was then diluted with 100 millimolar sodium carbonate in water to a final volume of 50 milliliters to produce a solution comprising 2-[(1R,6R)-6-isopropenyl-3-methylcyclohex-2-en-1-yl]-3-hydroxy-5-pentylphenolate at approximately 20-grams-per-liter. 0.5 milliliters of the 2-[(1R,6R)-6-isopropenyl-3-methylcyclohex-2-en-1-yl]-3-hydroxy-5-pentylphenolate solution was added to each of 25 test tubes containing 9.5 milliliters of 100 millimolar (0.1 M) carbonate/bicarbonate (CO3^2−/HCO3^−) buffer according to Table 1. Each test tube contained approximately 10 milligrams of 2-[(1R,6R)-6-isopropenyl-3-methylcyclohex-2-en-1-yl]-3-hydroxy-5-pentylphenolate at a concentration of approximately 1 gram-per-liter. pH's were confirmed by multiple different measurements.
# It was expected that 2-[(1R,6R)-6-isopropenyl-3-methylcyclohex-2-en-1-yl]-3-hydroxy-5-pentylphenolate would reform cannabidiol at pH's below a threshold pH as evidenced by an expected color change from purple (indicative of 2-[(1R,6R)-6-isopropenyl-3-methylcyclohex-2-en-1-yl]-3-hydroxy-5-pentylphenolate) to colorless (indicative of cannabidiol).
# [6] = Approximate pKa of cannabidiol by color at varying sodium bicarbonate (Example 20); assay type: physicochemical; conditions: from color change at pH 8.0 and 8.3, read-out: pKa of cannabidiol in dilute aqueous solution
# Description: This example confirms that 2-[(1R,6R)-6-isopropenyl-3-methylcyclohex-2-en-1-yl]-3-hydroxy-5-pentylphenolate is viable for inclusion in beverages formulated for human consumption. 0.5 milliliters of the 20 gram-per-liter solution of 2-[(1R,6R)-6-isopropenyl-3-methylcyclohex-2-en-1-yl]-3-hydroxy-5-pentylphenolate described in Example 19 was diluted with 9.5 milliliters of distilled water comprising varying concentrations of sodium bicarbonate, and color was monitored as shown in Table 2. pH's were confirmed by multiple different measurements.
# A color change was visually apparent at a pH of 8.0, and a subtle color change was visually apparent at pH of 8.3.
# [7] = Adjusting the pH of the phenolate emulsion to 9.1 with sodium bicarbonate (Examples 7 and 8); assay type: physicochemical; conditions: emulsion adjusted to pH 9.1, color change and lipid phase separation
# Description: 1.65 grams of carbon-filtered industrial hemp extract comprising approximately 65% cannabidiol was dissolved in 10 milliliters of 420 millimolar potassium hydroxide in ethanol to convert the cannabidiol into 2-[(1R,6R)-6-isopropenyl-3-methylcyclohex-2-en-1-yl]-3-hydroxy-5-pentylphenolate.
# 1 gram of cannabidiol isolate was dissolved in 10 milliliters of 380 millimolar potassium hydroxide in ethanol to convert the cannabidiol into 2-[(1R,6R)-6-isopropenyl-3-methylcyclohex-2-en-1-yl]-3-hydroxy-5-pentylphenolate.
# [8] = Dissolving salts of the phenolate in water (Examples 14 and 17); assay type: physicochemical; conditions: salt from 1.4 grams cannabidiol, dried under vacuum; 90 milliliters
# Description: 1.4 grams of pure cannabidiol was dissolved in 10 milliliters of 0.5 molar potassium hydroxide in ethanol to convert the cannabidiol into 2-[(1R,6R)-6-isopropenyl-3-methylcyclohex-2-en-1-yl]-3-hydroxy-5-pentylphenolate. A potassium salt of 2-[(1R,6R)-6-isopropenyl-3-methylcyclohex-2-en-1-yl]-3-hydroxy-5-pentylphenolate was formed by drying the ethanol solution under vacuum overnight. 90 milliliters of 100 millimolar aqueous sodium carbonate was added to the potassium salt of 2-[(1R,6R)-6-isopropenyl-3-methylcyclohex-2-en-1-yl]-3-hydroxy-5-pentylphenolate.
# This example describes a successful attempt to produce a salt of 2-[(1R,6R)-6-isopropenyl-3-methylcyclohex-2-en-1-yl]-3-hydroxy-5-pentylphenolate that readily dissolves in water. A first aliquot from Example 16 was lyophilized to produce salts including a potassium 2-[(1R,6R)-6-isopropenyl-3-methylcyclohex-2-en-1-yl]-3-hydroxy-5-pentylphenolate salt and a sodium 2-[(1R,6R)-6-isopropenyl-3-methylcyclohex-2-en-1-yl]-3-hydroxy-5-pentylphenolate salt. […] The water was centrifuged to remove undissolved salt and to produce an aqueous solution of 2-[(1R,6R)-6-isopropenyl-3-methylcyclohex-2-en-1-yl]-3-hydroxy-5-pentylphenolate concentrate for inclusion in beverages.
# [9] = approximately 60 milligrams in 296 mL water, pH 9.1, oral over 5 to 10 minutes, one adult
structure (smiles),measurement,setting,value
"C=C(C)[C@@H]1CCC(C)=C[C@H]1c1c(O)cc(CCCCC)cc1O [2-[(1R,6R)-6-isopropenyl-3-methylcyclohex-2-en-1-yl]-3-hydroxy-5-pentylphenolate]",onset of a perceptible psychoactive effect,[1]; [9],within minutes of ingestion
same,time of marked perceptible psychoactive effect following ingestion,[1]; [9],approximately 30 minutes
same,individuals reporting rapid onset of a perceptible psychoactive effect within minutes of ingestion,"[1]; approximately 100 milligrams per liter, pH 9.1, varying amounts, oral over 5 to 10 minutes, four adults",Three of the four individuals
same,time to psychoactive effects after ingestion,"[1]; dissolved in water, orally administered",less than 5 minutes
same,stability at high temperatures,[2],unstable at high temperatures
same,concentration dissolved in water,[3]; worked out from the olive oil samples,about 78 milligrams per liter
same,appearance of the liquid,"[4]; approximately 10 milligrams in 500 milliliter DASANI water, pH about 8.5",transparent and lacked discernable color
same,appearance of the liquid,"[4]; approximately 100 milligrams in 500 milliliter DASANI water, pH about 9.5",transparent and purple
same,appearance of the liquid,"[4]; approximately 400 milligrams in 1 liter ESSENTIA water, pH about 10",purple and transparent
same,color change from purple to colorless,"[5]; pH's of 9.1 and above, 0.1 M carbonate/bicarbonate buffer",No color change
"C=C(C)[C@@H]1CCC(C)=C[C@H]1c1c(O)cc(CCCCC)cc1O [cannabidiol, 2-[(1R,6R)-6-isopropenyl-3-methylcyclohex-2-en-1-yl]-5-pentylbenzene-1,3-diol]",other cannabinoids in the olive oil samples,[3]; HPLC with diode array detector,did not detect any other cannabinoid
same,cannabidiol content of olive oil samples,"[3]; reprotonated with acetic acid, 100 mL water extracted with 4 mL olive oil, two samples, HPLC",0.18 % by weight and 0.21 % by weight
same,pKa,[6],8 to 8.5
same,pKa,"[7]; Example 7, from carbon-filtered industrial hemp extract, read-out: pKa of cannabidiol in water",> 9.1
same,pKa of cannabidiol in water,"[7]; Example 8, from cannabidiol isolate",greater than 9.1
same,pKa,"[5]; Example 19, dilute aqueous solutions, read-out: pKa of cannabidiol",< 9.1
"C=C(C)[C@@H]1CCC(C)=C[C@H]1c1c([O-])cc(CCCCC)cc1O.[K+] [potassium salt of 2-[(1R,6R)-6-isopropenyl-3-methylcyclohex-2-en-1-yl]-3-hydroxy-5-pentylphenolate]",dissolution in 100 millimolar aqueous sodium carbonate,[8],the majority of the salt remained in the solid phase
